According to PMC12140386, “Diallyl Trisulfide From Garlic Regulates RAB18 Phase Separation to Inhibit Lipophagy and Induce Cuproptosis in Hepatic Stellate Cells for Antifibrotic Effects” (Advanced Science, 2025):

What was measured:
[1] = target: T1, RAB18 protein in LX2 cells (Homo sapiens, UniProt Q9NP72); assay: cellular thermal shift assay; type: cell-based; details: 10 µM DATs, 24 h
T1 construct: endogenous RAB18 in human hepatic stellate cell line LX2 (CETSA)

[2] = target: T2, purified RAB18 protein (GFP‐RAB18) (Homo sapiens, UniProt Q9NP72); assay: FRAP of RAB18 droplets (also AFM); type: binding; details: 10 µM DATs; 50 µM protein; 50 mM HEPES pH 7.4, 150 mM NaCl; no added CaCl2
T2 construct: GFP-fusion RAB18, expressed in E. coli BL21 (DE3), Ni-NTA purified
T2 sequence (Q9NP72 whole entry, the tested form may be a part): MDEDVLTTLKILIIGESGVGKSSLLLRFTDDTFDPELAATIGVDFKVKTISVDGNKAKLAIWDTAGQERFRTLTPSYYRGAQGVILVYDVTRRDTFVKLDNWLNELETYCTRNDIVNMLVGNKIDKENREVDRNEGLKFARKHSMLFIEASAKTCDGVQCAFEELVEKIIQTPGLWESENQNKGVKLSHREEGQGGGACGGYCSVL

T1 sequence (Q9NP72 1-203): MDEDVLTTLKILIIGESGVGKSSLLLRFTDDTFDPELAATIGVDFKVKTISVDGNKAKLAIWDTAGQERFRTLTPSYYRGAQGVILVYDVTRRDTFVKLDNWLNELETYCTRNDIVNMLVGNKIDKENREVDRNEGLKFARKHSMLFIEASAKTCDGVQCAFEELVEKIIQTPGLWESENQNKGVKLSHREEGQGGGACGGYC

FRAP recovery percentage [2]: ~ ≈80%
SMILES: C=CCSSSCC=C [DATs, Diallyl trisulfides]
CETSA [1]: DATs exhibit a strong affinity for RAB18, effectively binding to and stabilizing the conformation of RAB18
